From ChEMBL document CHEMBL1136646, “Biphenyls as potent vitronectin receptor antagonists. Part 2: biphenylalanine ureas” (Bioorg Med Chem Lett, 2003)

Target: Integrin alpha-V/beta-3 (Homo sapiens, UniProt P05106+P06756)
Experiment: Binding affinity towards vitronectin receptor (alpha V-beta3) was determined
Assay type: protein-complex assay

Chain of Integrin alpha-V/beta-3 (P05106 27-788 limits assumed): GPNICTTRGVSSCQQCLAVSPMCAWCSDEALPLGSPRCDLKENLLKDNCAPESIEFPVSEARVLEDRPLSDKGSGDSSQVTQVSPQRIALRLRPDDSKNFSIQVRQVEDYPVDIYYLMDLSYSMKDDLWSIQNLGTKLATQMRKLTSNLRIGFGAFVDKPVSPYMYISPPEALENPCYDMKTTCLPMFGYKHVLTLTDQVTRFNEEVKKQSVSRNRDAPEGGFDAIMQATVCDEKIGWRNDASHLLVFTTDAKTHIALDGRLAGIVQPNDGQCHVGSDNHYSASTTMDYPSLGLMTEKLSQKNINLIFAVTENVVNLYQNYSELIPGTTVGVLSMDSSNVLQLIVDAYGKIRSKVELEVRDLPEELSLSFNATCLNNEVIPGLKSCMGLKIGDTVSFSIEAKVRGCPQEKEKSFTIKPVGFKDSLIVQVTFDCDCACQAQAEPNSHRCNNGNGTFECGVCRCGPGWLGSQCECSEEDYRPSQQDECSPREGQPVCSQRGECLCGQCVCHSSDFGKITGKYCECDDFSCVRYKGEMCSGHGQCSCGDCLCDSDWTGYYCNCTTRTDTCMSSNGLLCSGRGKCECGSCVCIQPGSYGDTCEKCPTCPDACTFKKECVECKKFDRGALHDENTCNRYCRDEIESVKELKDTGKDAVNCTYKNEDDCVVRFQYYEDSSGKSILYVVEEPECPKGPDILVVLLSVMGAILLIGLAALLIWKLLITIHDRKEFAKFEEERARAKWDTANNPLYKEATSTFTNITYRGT
Chain of Integrin alpha-V/beta-3 (P06756 31-889 limits assumed): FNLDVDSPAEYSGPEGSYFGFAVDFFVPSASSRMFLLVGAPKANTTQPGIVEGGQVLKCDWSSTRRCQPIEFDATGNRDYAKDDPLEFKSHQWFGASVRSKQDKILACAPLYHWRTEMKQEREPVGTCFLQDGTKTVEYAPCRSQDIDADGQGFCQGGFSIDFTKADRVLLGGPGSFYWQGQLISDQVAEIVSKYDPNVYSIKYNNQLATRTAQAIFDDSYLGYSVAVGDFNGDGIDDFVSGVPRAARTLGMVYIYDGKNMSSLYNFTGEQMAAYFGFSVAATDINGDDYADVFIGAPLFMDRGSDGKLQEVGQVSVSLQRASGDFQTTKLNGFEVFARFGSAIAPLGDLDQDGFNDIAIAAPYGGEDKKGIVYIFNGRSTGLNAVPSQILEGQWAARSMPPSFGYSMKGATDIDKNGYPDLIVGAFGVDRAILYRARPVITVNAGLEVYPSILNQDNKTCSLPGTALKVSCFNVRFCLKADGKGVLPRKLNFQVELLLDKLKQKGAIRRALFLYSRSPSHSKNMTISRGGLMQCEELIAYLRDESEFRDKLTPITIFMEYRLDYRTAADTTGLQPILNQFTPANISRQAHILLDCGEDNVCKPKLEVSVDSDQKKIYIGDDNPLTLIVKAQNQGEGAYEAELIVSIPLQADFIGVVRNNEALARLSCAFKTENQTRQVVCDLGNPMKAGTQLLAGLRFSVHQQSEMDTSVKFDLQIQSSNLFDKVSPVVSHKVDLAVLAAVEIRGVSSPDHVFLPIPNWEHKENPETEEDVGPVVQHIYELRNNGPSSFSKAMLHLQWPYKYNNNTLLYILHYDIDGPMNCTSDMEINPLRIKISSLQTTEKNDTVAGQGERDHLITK
Chain of Integrin alpha-V/beta-3 (P06756 891-1048 limits assumed): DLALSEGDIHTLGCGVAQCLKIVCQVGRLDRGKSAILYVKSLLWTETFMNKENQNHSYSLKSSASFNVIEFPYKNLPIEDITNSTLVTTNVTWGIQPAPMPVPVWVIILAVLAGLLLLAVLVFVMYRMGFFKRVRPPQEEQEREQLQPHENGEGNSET

Which Ki does the source give for `CCCNC(=O)Nc1cccc(-c2ccc(C[C@H](NS(=O)(=O)C[C@]34CCC(CC3=O)C4(C)C)C(=O)O)cc2)c1` here?
Its Ki is 1 nM.

With `Cc1cc(C)c(S(=O)(=O)N[C@@H](Cc2ccc(-c3cccc(NC(=O)NC4CC4)c3)cc2)C(=O)O)c(C)c1` as the molecule, how does the Ki read?
Its Ki is 2.5 nM.

How did the Ki turn out when `Cc1cc(C)c(S(=O)(=O)N[C@@H](Cc2ccc(-c3ccc(C)c(NC(=O)NC4CCCC4)c3)cc2)C(=O)O)c(C)c1` was run?
The Ki was 100 nM.

For `Cc1cc(C)c(S(=O)(=O)N[C@@H](Cc2ccc(-c3cccc(NC(=O)NCc4ccccn4)c3)cc2)C(=O)O)c(C)c1`, which Ki is on record?
The Ki was greater than 10000 nM.

`CCCNC(=O)Nc1cccc(-c2ccc(C[C@H](NC(=O)NCc3ccccc3)C(=O)O)cc2)c1` was tested. Which Ki did it give?
Its Ki is 850 nM.

Which Ki does the source give for `Cc1cc(C)c(S(=O)(=O)N[C@@H](Cc2ccc(-c3cccc(NC(N)=O)c3)cc2)C(=O)O)c(C)c1` here?
Its Ki is 80 nM.

How did the Ki turn out when `CCCNC(=O)Nc1cccc(-c2ccc(C[C@H](NS(=O)(=O)c3ccc(OC)c(OC)c3)C(=O)O)cc2)c1` was run?
Its Ki is 750 nM.

`CCCNC(=O)Nc1cccc(-c2ccc(C[C@H](NC(=O)OCc3ccccc3)C(=O)O)cc2)c1` was tested. Which Ki did it give?
Its Ki is 800 nM.

Which Ki does the source give for `CCCNC(=O)Nc1cccc(-c2ccc(C[C@H](NS(=O)(=O)c3c(C)cc(C)cc3C)C(=O)O)cc2)c1` here?
Its Ki is 4 nM.

Which Ki does the source give for `Cc1cc(C)c(S(=O)(=O)N[C@@H](Cc2ccc(-c3cccc(NC(=O)NCC(C)C)c3)cc2)C(=O)O)c(C)c1` here?
Its Ki is 10 nM.

With `Cc1cc(C)c(S(=O)(=O)N[C@@H](Cc2ccc(-c3cccc(NC(=O)NC(C)C)c3)cc2)C(=O)O)c(C)c1` as the molecule, how does the Ki read?
The Ki was 14 nM.

`CCCNC(=O)Nc1cccc(-c2ccc(C[C@H](NC(=O)OCC(C)C)C(=O)O)cc2)c1` was tested. Which Ki did it give?
The Ki was 900 nM.

`CCCNC(=O)Nc1cccc(-c2ccc(C[C@H](NS(=O)(=O)c3cc(Cl)ccc3OC)C(=O)O)cc2)c1` was tested. Which Ki did it give?
Its Ki is 1700 nM.

Which Ki does the source give for `CCCNC(=O)Nc1cccc(-c2ccc(C[C@H](NS(=O)(=O)Cc3ccccc3)C(=O)O)cc2)c1` here?
The Ki was 300 nM.

For `Cc1cc(C)c(S(=O)(=O)N[C@@H](Cc2ccc(-c3cccc(NC(=O)NCCSC(F)(F)F)c3)cc2)C(=O)O)c(C)c1`, which Ki is on record?
Its Ki is 8 nM.

Which Ki does the source give for `Cc1cc(C)c(S(=O)(=O)N[C@@H](Cc2ccc(-c3cccc(NC(=O)NCC(F)(F)C(F)(F)F)c3)cc2)C(=O)O)c(C)c1` here?
Its Ki is 80 nM.

Which Ki does the source give for `CCCNC(=O)Nc1cccc(-c2ccc(C[C@H](NS(=O)(=O)c3ccccc3C(F)(F)F)C(=O)O)cc2)c1` here?
Its Ki is greater than 10000 nM.

For `CNC(=O)Nc1cccc(-c2ccc(C[C@H](NS(=O)(=O)c3c(C)cc(C)cc3C)C(=O)O)cc2)c1`, which Ki is on record?
The Ki was 160 nM.

`Cc1cc(C)c(S(=O)(=O)N[C@@H](Cc2ccc(-c3cccc(NC(=O)Nc4nc5ccccc5[nH]4)c3)cc2)C(=O)O)c(C)c1` was tested. Which Ki did it give?
Its Ki is greater than 10000 nM.

For `CCCNC(=O)Nc1cccc(-c2ccc(C[C@H](NC(N)=O)C(=O)O)cc2)c1`, which Ki is on record?
Its Ki is 560 nM.

With `Cc1cc(C)c(S(=O)(=O)N[C@@H](Cc2ccc(-c3cccc(NC(=O)NCc4ccccc4)c3)cc2)C(=O)O)c(C)c1` as the molecule, how does the Ki read?
Its Ki is 60 nM.

`CCCNC(=O)Nc1cccc(-c2ccc(C[C@H](NS(=O)(=O)c3ccccc3C)C(=O)O)cc2)c1` was tested. Which Ki did it give?
The Ki was 70 nM.

For `CCCNC(=O)Nc1cccc(-c2cccc(C[C@H](NS(=O)(=O)c3c(C)cc(C)cc3C)C(=O)O)c2)c1`, which Ki is on record?
The Ki was greater than 10000 nM.

`CCCNC(=O)Nc1cccc(-c2ccc(C[C@H](NC(=O)OC3CCCC3)C(=O)O)cc2)c1` was tested. Which Ki did it give?
Its Ki is 210 nM.

For `Cc1cc(C)c(S(=O)(=O)N[C@@H](Cc2ccc(-c3ccc(C)c(NC(=O)NC4CC4)c3)cc2)C(=O)O)c(C)c1`, which Ki is on record?
The Ki was 10 nM.

For `CCCNC(=O)Nc1cccc(-c2ccc(C[C@H](NC(=O)c3ccc(OC)cc3)C(=O)O)cc2)c1`, which Ki is on record?
The Ki was greater than 10000 nM.

With `Cc1cc(C)c(S(=O)(=O)N[C@@H](Cc2ccc(-c3cccc(NC(=O)NCc4ccc(C(F)(F)F)cc4)c3)cc2)C(=O)O)c(C)c1` as the molecule, how does the Ki read?
The Ki was 1000 nM.

With `CCCNC(=O)Nc1cccc(-c2ccc(C[C@H](NS(=O)(=O)c3ccc(Cl)cc3C(F)(F)F)C(=O)O)cc2)c1` as the molecule, how does the Ki read?
The Ki was 100 nM.

With `CCCNC(=O)Nc1cccc(-c2ccc(C[C@H](NC(=O)OCC)C(=O)O)cc2)c1` as the molecule, how does the Ki read?
Its Ki is 120 nM.

With `Cc1cc(C)c(S(=O)(=O)N[C@@H](Cc2ccc(-c3cccc(NC(=O)NCC(F)(F)F)c3)cc2)C(=O)O)c(C)c1` as the molecule, how does the Ki read?
Its Ki is 20 nM.

Which Ki does the source give for `CCCNC(=O)Nc1cccc(-c2ccc(C[C@H](NS(=O)(=O)c3cccc(Cl)c3Cl)C(=O)O)cc2)c1` here?
The Ki was 170 nM.

With `CCCNC(=O)Nc1cccc(-c2ccc(C[C@H](NC(=O)Oc3ccc(OC)cc3)C(=O)O)cc2)c1` as the molecule, how does the Ki read?
The Ki was 300 nM.

Which Ki does the source give for `Cc1cc(C)c(S(=O)(=O)N[C@@H](Cc2ccc(-c3cccc(NC(=N)N)c3)cc2)C(=O)O)c(C)c1` here?
Its Ki is 11 nM.

How did the Ki turn out when `CCC(C)NC(=O)Nc1cccc(-c2ccc(C[C@H](NS(=O)(=O)c3c(C)cc(C)cc3C)C(=O)O)cc2)c1` (stereo partly drawn) was run?
The Ki was 74 nM.

With `CCCNC(=O)Nc1cccc(-c2ccc(C[C@H](NC(=O)OCC(C)(C)C)C(=O)O)cc2)c1` as the molecule, how does the Ki read?
The Ki was 800 nM.

How did the Ki turn out when `CCCNC(=O)Nc1cccc(-c2ccc(C[C@H](NS(C)(=O)=O)C(=O)O)cc2)c1` was run?
Its Ki is 75 nM.

`CCCNC(=O)Nc1cccc(-c2ccc(C[C@H](NS(=O)(=O)c3ccccc3S(C)(=O)=O)C(=O)O)cc2)c1` was tested. Which Ki did it give?
The Ki was greater than 10000 nM.

`CCCNC(=O)Nc1cccc(-c2ccc(C[C@H](NS(=O)(=O)c3cc(OC)ccc3OC)C(=O)O)cc2)c1` was tested. Which Ki did it give?
The Ki was 500 nM.
